According to paper PMC11945486, “TAS1R2/TAS1R3 Single-Nucleotide Polymorphisms Affect Sweet Taste Receptor Activation by Sweeteners: The SWEET Project” (Nutrients, 2025):
Like-named read-outs stand apart in the source and are kept apart here. No end group written: not given here.

Target: T1, human TAS1R2-WT/TAS1R3-M110T (Homo sapiens, UniProt Q7RTX0+Q8TE23, M110T)
T1 construct: expressed in transfected cells; host or cells: HEK293T stably expressing Gα16gust44
T1 sequence (Q8TE23 20-839): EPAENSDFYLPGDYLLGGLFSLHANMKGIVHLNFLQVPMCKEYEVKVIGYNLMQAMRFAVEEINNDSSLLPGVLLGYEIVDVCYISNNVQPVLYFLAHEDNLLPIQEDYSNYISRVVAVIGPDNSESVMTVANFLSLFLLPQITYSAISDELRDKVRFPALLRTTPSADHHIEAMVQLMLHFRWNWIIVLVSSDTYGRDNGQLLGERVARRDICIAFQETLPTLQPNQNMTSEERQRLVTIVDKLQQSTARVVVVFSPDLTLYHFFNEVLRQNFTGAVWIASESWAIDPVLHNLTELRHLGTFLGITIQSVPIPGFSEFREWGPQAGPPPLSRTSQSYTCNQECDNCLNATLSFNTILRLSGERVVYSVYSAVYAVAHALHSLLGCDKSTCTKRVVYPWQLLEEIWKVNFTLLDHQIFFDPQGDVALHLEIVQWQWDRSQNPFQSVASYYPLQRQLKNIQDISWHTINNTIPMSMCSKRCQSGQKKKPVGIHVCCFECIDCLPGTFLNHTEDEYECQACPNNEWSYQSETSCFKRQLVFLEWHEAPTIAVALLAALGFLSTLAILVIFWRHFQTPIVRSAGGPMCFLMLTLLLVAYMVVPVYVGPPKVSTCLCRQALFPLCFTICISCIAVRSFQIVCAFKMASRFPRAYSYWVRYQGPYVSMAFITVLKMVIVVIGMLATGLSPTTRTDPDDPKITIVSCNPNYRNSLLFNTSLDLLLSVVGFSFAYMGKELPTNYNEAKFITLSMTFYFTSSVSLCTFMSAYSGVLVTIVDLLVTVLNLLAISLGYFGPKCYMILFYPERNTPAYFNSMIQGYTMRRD
T1 sequence (Q7RTX0 21-852 M110T): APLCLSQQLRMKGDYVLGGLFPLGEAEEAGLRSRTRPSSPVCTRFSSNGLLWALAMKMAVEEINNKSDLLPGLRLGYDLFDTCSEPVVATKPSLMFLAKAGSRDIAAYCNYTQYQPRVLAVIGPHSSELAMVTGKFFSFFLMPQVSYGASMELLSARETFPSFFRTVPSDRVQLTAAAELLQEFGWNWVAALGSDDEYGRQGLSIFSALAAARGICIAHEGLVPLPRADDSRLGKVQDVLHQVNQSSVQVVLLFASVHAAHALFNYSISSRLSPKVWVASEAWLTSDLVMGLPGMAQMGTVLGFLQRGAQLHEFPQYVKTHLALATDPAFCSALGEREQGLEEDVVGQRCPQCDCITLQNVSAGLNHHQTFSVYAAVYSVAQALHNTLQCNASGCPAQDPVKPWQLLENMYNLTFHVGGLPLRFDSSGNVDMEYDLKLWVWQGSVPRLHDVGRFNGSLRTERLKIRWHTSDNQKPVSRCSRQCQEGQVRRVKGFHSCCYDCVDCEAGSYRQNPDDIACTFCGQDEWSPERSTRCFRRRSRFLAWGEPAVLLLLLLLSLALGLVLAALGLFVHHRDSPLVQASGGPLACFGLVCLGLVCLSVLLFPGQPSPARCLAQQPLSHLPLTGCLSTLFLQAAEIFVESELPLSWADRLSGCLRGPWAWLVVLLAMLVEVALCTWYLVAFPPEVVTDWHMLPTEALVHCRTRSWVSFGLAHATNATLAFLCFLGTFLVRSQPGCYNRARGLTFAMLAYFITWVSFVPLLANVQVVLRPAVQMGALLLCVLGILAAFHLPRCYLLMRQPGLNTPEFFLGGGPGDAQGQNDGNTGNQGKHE
Test: Calcium mobilisation assay, TAS1R2-WT with TAS1R3 variant M110T
Assay type: cell-based
Settings: for Max ΔF/F0: maximal signal amplitude
Text: The coding sequences for TAS1R2 and TAS1R3 were commercially synthesised, and the human codon was optimised for expression in human cells. The coding sequences of human TAS1R2 and TAS1R3 were subcloned and inserted into the mammalian expression vectors pcDNA6/myc-HisA and pcDNA4/myc-HisA (Invitrogen; Thermo Fisher Scientific; Illkirch, France) between the EcoRI and NotI restriction sites, generating the plasmids pcDNA6-TAS1R2 and pcDNA4-TAS1R3, respectively. To increase protein expression in mammalian cells, an upstream start codon was used, which was a sequence called MAX, corresponding to the QBI SP163 element also described in pcDNA4-HisMax (Invitrogen; Thermo Fisher Scientific; Illkirch, France). To measure the expression level of the receptor by immunohistochemistry, we used the FLAG sequence ([…]) in the C-terminal position, which encodes the FLAG tag epitope. SNP variants of TAS1R2 and TAS1R3 were constructed based on […], respectively, using site-directed mutagenesis (Genewiz; Leipzig, Germany).
The HEK293T cells were kindly provided by Jay P. Slack (Givaudan Flavors Corporation; Cincinnati, OH, USA). HEK293T cells stably transfected with Gα16gust44 [43, 67] were seeded in poly-D-lysine-coated clear-bottom black 96-well plates (0.35 × 10^5 cells/well) in high-glucose DMEM supplemented with 2 mM GlutaMAX, 10% dialysed foetal bovine serum with penicillin/streptomycin and G418 (400 μg/mL) at 37 °C and 6.3% CO2 in a humidified atmosphere as previously reported. […] As a negative control, HEK293T cells were mock-transfected with the empty expression vector. After a further 24 h of incubation, the HEK293T cells were washed with C1 buffer (130 mM NaCl, 5 mM KCl, 10 mM HEPES pH 7.4 and 2 mM CaCl2). The 96-well plates containing the cells were then stimulated with sweet-tasting compounds. […] Different concentration ranges were tested depending on the sweet compound injected. The Ca^2+ changes were expressed as fractional changes in fluorescent light intensity: ΔF/F = (F − F0)/F0, where F was the fluorescent light intensity at each point, and F0 was the value of emitted fluorescent light prior to stimulus application. To calculate dose–response relationships, the changes in fluorescence upon stimulus application were averaged, mock-subtracted and baseline-corrected. The dose–response data obtained were adjusted using a 4-parameter logistic equation. The half-maximal effective concentrations (EC50 values) and maximal signal amplitudes were calculated using SigmaPlot software (version 15.0) (Systat Software; San Jose, CA, USA).
For in vitro calcium mobilisation assay performed on hTAS1R2-SNPs, hTAS1R3-SNPs and mTAS1R3-I60T, 6 to 7 concentrations were tested for each sweet compound, plus buffer alone. All concentration–receptor combinations were measured in duplicate, and each experiment was repeated at least 4 times (8 wells/concentration). Results were expressed for each concentration as ΔF/F mean ± SEM and represented as dose–response curves.

Molecule: OC[C@H]1O[C@H](O[C@]2(CCl)O[C@H](CCl)[C@@H](O)[C@@H]2O)[C@H](O)[C@@H](O)[C@H]1Cl [Sucralose]
- R1 = Variant EC50/WT EC50: 2.6
- Max ΔF/F0: 0.11 ± 0.02
- EC50 (read-out: EC50): 282 ± 101 µM

Molecule: O=S(=O)(O)NC1CCCCC1 [Cyclamate, cyclamate]
- EC50 (read-out: EC50): 2620 ± 98 µM

Molecule: C=C(C)[C@@H]1CC=C(/C=N/O)CC1 [Perillartine, perillartine]
- R1 = Variant EC50/WT EC50: 3.0
- Max ΔF/F0: 1.31 ± 0.21
- EC50 (read-out: EC50): 41.1 ± 19.4 µM

Molecule: C=C1C[C@@]23CC[C@H]4[C@@](C)(CCC[C@@]4(C)C(=O)O[C@@H]4O[C@H](CO)[C@@H](O)[C@H](O[C@@H]5O[C@H](CO)[C@@H](O)[C@H](O)[C@H]5O)[C@H]4O[C@@H]4O[C@H](CO)[C@@H](O)[C@H](O)[C@H]4O)[C@@H]2CC[C@]1(O[C@@H]1O[C@H](CO)[C@@H](O)[C@H](O[C@@H]2O[C@H](CO)[C@@H](O)[C@H](O)[C@H]2O)[C@H]1O[C@@H]1O[C@H](CO)[C@@H](O)[C@H](O)[C@H]1O)C3 [Rebaudioside M, rebaudioside M]
- R1 = Variant EC50/WT EC50: 2.6
- Max ΔF/F0: 0.38 ± 0.04
- EC50 (read-out: EC50): 103 ± 18 µM

Molecule: COc1ccc(CCC(=O)c2c(O)cc(O[C@@H]3O[C@H](CO)[C@@H](O)[C@H](O)[C@H]3O[C@@H]3O[C@@H](C)[C@H](O)[C@@H](O)[C@H]3O)cc2O)cc1O [NHDC, neohesperidin dihydrochalcone]
- R1 = Variant EC50/WT EC50: 4.0
- Max ΔF/F0: 0.48 ± 0.02
- EC50 (read-out: EC50): 203 ± 17.1 µM

Molecule: thaumatin
- R1 = Variant EC50/WT EC50: 1.6
- Max ΔF/F0: 0.38 ± 0.01

Molecule: CC1=CC(=O)NS(=O)(=O)O1 [Acesulfame K, acesulfame K]
- R1 = Variant EC50/WT EC50: 1.7
- Max ΔF/F0: 0.20 ± 0.01
- EC50 (read-out: EC50): 1060 ± 648 µM

Molecule: brazzein (QDKCKKVYENYPVSKCQLANQCNYDCKLDKHARSGECFYDEKRNLQCICDYCEY; ends and bridges not checked; cysteine pairing not given here; UniProt P56552 1-54, looked up) [sweet-tasting protein obtained by recombinant production using the yeast Pichia pastoris]
- R1 = Variant EC50/WT EC50: 2.0
- EC50 (brazzein): 221.5 ± 11.3 µg/mL
- Max ΔF/F0: 0.68 ± 0.01

Molecule: C[C@H](CC[C@@H](O[C@@H]1O[C@H](CO[C@@H]2O[C@H](CO)[C@@H](O)[C@H](O)[C@H]2O)[C@@H](O)[C@H](O)[C@H]1O[C@@H]1O[C@H](CO)[C@@H](O)[C@H](O)[C@H]1O)C(C)(C)O)[C@H]1CC[C@@]2(C)[C@@H]3CC=C4[C@@H](CC[C@H](O[C@@H]5O[C@H](CO[C@@H]6O[C@H](CO)[C@@H](O)[C@H](O)[C@H]6O)[C@@H](O)[C@H](O)[C@H]5O)C4(C)C)[C@]3(C)[C@H](O)C[C@]12C [Mogroside V, mogroside V]
- R1 = Variant EC50/WT EC50: 3.0
- Max ΔF/F0: 0.43 ± 0.02
- EC50 (read-out: EC50): 94.5 ± 8.4 µM

Molecule: COC(=O)[C@H](Cc1ccccc1)NC(=O)[C@H](CC(=O)O)NCCC(C)(C)C [Neotame]
- R1 = Variant EC50/WT EC50: 2.2
- Max ΔF/F0: 0.19 ± 0.01
- EC50 (read-out: EC50): 2.7 ± 0.29 µM

B1: thaumatin (protein)
chain: ATFEIVNRCSYTVWAAASKGDAALDAGGRQLNSGESWTINVEPGTKGGKIWARTDCYFDDSGSGICKTGDCGGLLRCKRFGRPPTTLAEFSLNQYGKDYIDISNIKGFNVPMDFSPTTRGCRGVRCAADIVGQCPAKLKAPGGGCNDACTVFQTSEYCCTTGKCGPTEYSRFFKRLCPDAFSYVLDKPTTVTCPGSSNYRVTFCPTA
modifications: Eight disulfides
notes: sweet-tasting plant protein, E957
- EC50 (read-out: EC50): 16.3 ± 0.9 µM
